# Test results from patent publication US10247722B2, “Use of compounds inhibiting apelin / APJ / GP130 signaling for treating cancer” (Centre National de la Recherche Scientifique (CNRS), priority 2014, dated 2019).
# “Also recorded” adds a separate entry of the source. Positions of bridges follow the written chain, without caps; N, C: chain ends. No end group written: not given here.
# What was measured:
# patient-derived GSCs [1] = assay: Secondary neurosphere/tumoursphere formation, Sox2/Nestin expression and trypan blue viability of GSCs; type: cell-based, human; conditions: mitogen-free medium plus APJ agonist; ML233 1 mmol·l^1, 4 days (FIG. 13)
# [2] = test system: mice intracranially implanted with GSCs; assay: Orthotopic (intracranial) GSC #9 implantation in nude mice; type: in vivo
# Procedure: FIG. 15. Anti-tumor effect of APJ inhibition. Nude mice were implanted with GSC #9 orthotopically (10^5 cells) and treated tri-weekly with intraperitoneal injection of vehicle (PBS) or APJ antagonist (MM54, 20 μmol·l^−, 4 mg/kg) starting at day 16 (arrow). Appearance of neurological symptoms (a) and weight at sacrifice (b) were monitored. Kaplan-Meier survival curve of GSC #9-bearing mice is shown (c). Data represent mean+sem of n=3 experiments. Two-way ANOVA: *P<0.05; **P<0.01.
# STAT3 [3] = assay: STAT3 luciferase reporter assay in HEK-293T co-expressing APJ and Gp130; type: cell-based, human; conditions: HEK-293T co-expressing APJ and Gp130, Apelin 6 h
# Procedure: FIG. 9. Pharmacological inhibition of APJ impairs tumour growth. a. GSCs were pre-treated with APJ antagonist (MM54, 2 μmol·l^1) 45 min prior EC-CM or Apelin (Apin, 1 μmol·l^−1, 7 min) and protein lysates were analysed by western-blots with the indicated antibodies. Controls include GSC grown in complete (NS) and mitogen-free media (MF). b. STAT3 reporter activity was measured in mock, APJ, Gp130 and APJ+Gp130-transfected HEK-293T and exposed for 6 h to MF and Apin, together with either DMSO or MM54. c. GSCs were exposed to NS, EC-CM and Apin in the presence of DMSO or MM54. Tumoursphere formation per field of view (TS/FOV) was also quantified. d. […] Tumour volume was measured weekly for 7 weeks. e. Frozen sections from GSC-xenografted tumours treated either with vehicle or MM54 were stained for blood vessels (PECAM), together with either Ki67 (proliferation marker or Nestin and nuclei. Percentage of dead cells was estimated by TUNEL. Quantification of both staining is shown. Data represent mean+sem on n=3 experiments. Two-way ANOVA: *P<0.05; **P<0.01.
# HEK-293T cells were co-transfected with HA-APJ, GP130, STAT3 Luciferase Reporter Vector (Affymetrix) and Renilla (Promega). […] Then, cells were lysed and STAT3 luciferase activity was measured using the Dual-Luciferase Reporter Assay (Promega). […]
# [4] = test system: human GSCs implanted into immunocompromised mouse flanks; assay: Subcutaneous GSC xenograft in nude mice, tumour growth and histology; type: in vivo
# Procedure: (§1) FIG. 9. Pharmacological inhibition of APJ impairs tumour growth. a. GSCs were pre-treated with APJ antagonist (MM54, 2 μmol·l^1) 45 min prior EC-CM or Apelin (Apin, 1 μmol·l^−1, 7 min) and protein lysates were analysed by western-blots with the indicated antibodies. Controls include GSC grown in complete (NS) and mitogen-free media (MF). b. STAT3 reporter activity was measured in mock, APJ, Gp130 and APJ+Gp130-transfected HEK-293T and exposed for 6 h to MF and Apin, together with either DMSO or MM54. c. GSCs were exposed to NS, EC-CM and Apin in the presence of DMSO or MM54. Tumoursphere formation per field of view (TS/FOV) was also quantified. d. Nude mice were xenografted with GSCs and bi-weekly intraperitoneal administration of vehicle (PBS) or APJ antagonist (MM54, 20 μmol·l^−1) started at week 4 (arrow). Tumour volume was measured weekly for 7 weeks. e. Frozen sections from GSC-xenografted tumours treated either with vehicle or MM54 were stained for blood vessels (PECAM), together with either Ki67 (proliferation marker or Nestin and nuclei. Percentage of dead cells was estimated by TUNEL. Quantification of both staining is shown. Data represent mean+sem on n=3 experiments. Two-way ANOVA: *P<0.05; **P<0.01.
# All animal studies were carried out according to French Ministry approved protocols (agreement number #00754.02), in compliance with the European Convention for the Protection of Vertebrate Animals used for Experimental and other Scientific Purposes (ETS 123). Six weeks old females BALB/c nude mice (Janvier) were subcutaneously injected with 1*10^6 cells in 100 μl 1:1 PBS and growth factors-free matrigel (Corning). For tumour initiation (FIG. 9), mice were examined weekly in the search for tumours and sacrificed 7 weeks after implantation. For pharmacological studies (FIG. 6), mice were treated twice per week with MNI54 or vehicle (DMSO) diluted in PBS (100 μl) (intraperitoneal injection for 7 weeks), once tumours were detected (4 weeks post-implantation).
# Upon sacrifice, tumours were extracted, embedded in OCT (Tissue Tek) in biomoulds, frozen by immersion in dry ice-chilled isopentane for 1 min, and stored at −80° C. for further analysis.
# For immunostaining, embedded OCT-tumours were cut in 7 μm sections using a CM350S Leica cryostat (Histology platform, Institut Cochin, Paris). […]
# A minimum of 3 tumour sections per condition was used, with at least 5 different fields of view (fov) each. For blood vessel surface analysis, PECAM pixel intensity was calculated in each fov and an average+sem of the total fov was represented. Cell proliferation was assessed through the percentage of Ki67-positive cells normalized to the total cell number of cells in DAPI. Nestin positive cells were counted per fov.
# Akt/mTor pathway = assay: Western blot of Akt/mTor pathway activation (pAkt, pS6) in GSCs; type: cell-based, human
# Procedure: FIG. 4. […] Scale bar: 40 μm. Data represent mean+sem on n=3 experiments.
# as §1, with “Pharmacological inhibition of APJ impairs tumour growth. a.” left out
# [5] = Toxicity observation in MM54-treated mice (body weight, heart/body weight ratio, heart anatomy); type: in vivo; conditions: ectopic tumour-bearing mice, bi-weekly over 7 weeks; sham-operated female nude mice
# Procedure: FIG. 16. […] Gain weight was measured in ectopic tumour bearing mice that received bi-weekly treatment over 7 weeks. b-d. Female nude mice underwent intracranial implantation of PBS (sham surgery) and then received DMSO and MM54 17 days after PBS implantation. Body weight was monitored long the experiment (a). Heart/body weight ratios were calculated at the day of sacrifice (c). General anatomy of hearts from DMSO and MM54-treated mice using the Masson Trichrome staining (d).
# patient-derived GSCs [6] = assay: Secondary neurosphere/tumoursphere formation, Sox2/Nestin expression and trypan blue viability of GSCs; type: cell-based, human
# Procedure: as §1, with “Pharmacological inhibition of APJ impairs tumour growth. a.” left out
# FIG. 11. […] Apelin secretion was measured by EIA in positive templates (C+), mitogen-free media (MF), human brain endothelial cell (EC) and GSC conditioned media (CM). RT-PCR for Apelin and Actin is also shown for EC and GSC. b. Confocal analysis of Nestin (green), Sox2 (red) and nuclei (DAPI, blue) in GSC grown in complete media (NS), in MF, in EC-CM or MF containing only recombinant Apelin (Apin, 1 μmol·l^−1). Scale bar: 40 um. c-d. GSCs #1-16 were cultured in MF or Apin. Quantification of tumourspheres per field of view (TS/FOV) (c) and trypan blue exclusion quantification (Viable cells %) (d) was performed. e. EC received non-silencing RNA (siC) or Apin targeting siRNA (siApin). Apin extinction was checked by RT-PCR and enzyme immunoassay. f. GSCs were cultured with siC and siApin EC-CM, as prepared in (e). Confocal analysis was performed on Nestin (green), Sox2 (red) and DAPI (blue) co-staining. Scale bar: 40 μm. g-h. siC or siApin EC-CM treated GSCs were processed as in (c, d). i-k. GSCs were cultured with NS, MF, siC EC-CM and siApinEC-CM alone or plus Apin. Phase pictures are shown (i) Scale bar: 25 μm, TS/FOV and viable cells were also analysed (j, k). Data represent mean+sem on n=3 experiments. T-test: *P<0.05; **P<0.01; ***P<0.001.
# GSCs were dissociated by up-and-down pipetting and cultured in a 48-well plate format. […] NS counts were blindly performed on five random fields of view (fov) and the mean of neurosphere/fov was calculated from 3 independent experiments. Statistical analyses were performed using 2-way Student's test (Excel Microsoft Office).
# STAT3 [7] = conditions: recombinant Apelin 1 μM
# Procedure: A. Western-blot analysis for pY-STAT3, pS-STAT3 and Total STAT3 in GSC#1 treated with complete media (NS34), deprived medium (SF), endothelial cell-conditioned media (EC-CM), or SF supplemented with Apelin (1 μM), for the indicated times. B. GSC#1 received non-silencing siRNA (sic) or siRNA targeting APJ. GSC#1 were treated with EC-CM and analyzed by western-blots using the indicated antibodies (upper panel). Alternatively, GSC#1 received EC-CM prepared from non-silencing shRNA (shC) or shRNA targeting Apelin (lower panel). […] GSC#1 received non-silencing siRNA (siC) or siRNA targeting GP130, were stimulated with EC-CM three days later, and protein lysates were analyzed by western-blots, using the indicated antibodies. D. GSC#1 were pre-treated with GP130-blocking antibody 45 min prior EC-CM or Apelin stimulation and protein lysates were analyzed by western-blots. E. Neurosphere assay was conducted in GSC#1 treated with siRNA as in (C) or with GP130-blocking antibody as in (D).
# Proteins were collected in TNT buffer (10 mM Tris-HCl pH 7.5, 150 mM NaCl, 1% Triton X100, 2 mM EDTA) plus protease inhibitors (Sigma), 200 mM NaF and 0.1 mM Na3VO4. Equal amounts of proteins (microBCA kit, Pierce) were separated with 4-12% Nupage gels (Invitrogen) and transferred onto PVDF membranes (Thermo Fisher Scientific). […]
# [8] = intracranial GSC #9, intraperitoneal MM54 thrice a week (4 mg/kg) from day 16
compound,measurement,setting,value
Apelin 13,GSC survival,patient-derived GSCs [1],promote GSC survival
CC1=CC(=O)C(C2CCCCC2)=C/C1=N\OS(=O)(=O)c1ccccc1 [ML233],GSC survival,patient-derived GSCs [1],promote GSC survival; also recorded: promotes GSC survival through APJ/GP130
"cyclo(1-6)CRPRLC-KH-cyclo(9-14)CRPRLC (CRPRLCKHCRPRLC; bridge 1-6, 9-14) [MM54, APJ antagonist (Macaluso N J et al., 2011), supplied by Dr. Robert Glenn]",Neurological symptoms,"[2]; intracranial GSC #9, intraperitoneal MM54 thrice a week (20 μmol·l^−, 4 mg/kg) from day 16",significantly abolish
same,Loss weight associated with tumour progression,[2]; [8],rescue
same,Overall survival of tumour-bearing mice (Kaplan-Meier),[2]; [8],dramatically increased
same,Tumour size,"[2]; intracranial GSCs, intraperitoneal MM54 thrice a week",reduced
same,Inhibition of Apelin-mediated STAT3 activation (STAT3 reporter activity),STAT3 [3],reduced
same,Inhibition of Apelin-mediated STAT3 activation (STAT3 reporter activity),STAT3 [3]; listed as pharmacological antagonist of APJ,blocked
same,"GSC number in residual tumours, as scored with Nestin",[4]; bi-weekly intraperitoneal MM54,decreased
same,Overall cell proliferation (Ki67) and viability (TUNEL) in residual tumours,[4]; bi-weekly intraperitoneal MM54,decreased
same,Tumour vascularisation (PECAM),[4]; bi-weekly intraperitoneal MM54,reduction
same,Tumour growth (tumour volume),"[4]; bi-weekly intraperitoneal MM54 (20 μmol·l^−1) from week 4, 7 weeks",capable of in vivo inhibiting tumor growth once initiated; also recorded: restrain tumor growth and expansion; also recorded: strongly hindered
same,Inhibition of EC-CM- and Apelin-induced Akt/mTor activation in GSCs,"Akt/mTor pathway; pre-treatment 45 min prior EC-CM or Apelin (1 μmol·l^−1, 7 min), MM54 2 μmol·l^−1",blocks; also recorded: alleviated
same,Toxic effects of treatment,[5],does not exert any obvious toxic effects
same,"Neurosphere number and size, with Sox2/Nestin",patient-derived GSCs [6]; GSCs cultured with EC-CM,dramatically decreased
same,Endothelial Apelin-dependent GSC self-renewal and survival (tumoursphere formation),patient-derived GSCs [6]; GSCs exposed to EC-CM or Apelin in presence of DMSO or MM54,blocks; also recorded: impaired
Apelin,"Activation of the Akt/mTor pathway in GSCs (Akt, S6 phosphorylation)","Akt/mTor pathway; recombinant Apelin 1 μM, no other exogenous mitogen",able to activate this pathway in a similar extend than EC-CM; also recorded: triggered the activation of the mTor signalling cascade
same,Activation of STAT3 signaling in GSCs,STAT3 [7],able to activate this signaling pathway
same,GSC survival,patient-derived GSCs [1],has an effect on GSCs survival
same,EC-CM-sustained self-renewal and viability of GSCs,patient-derived GSCs [6]; exogenous Apelin added into Apelin-depleted endothelial cell-derived media,restored
same,GSC self-renewal (secondary neurosphere formation and Sox2/Nestin expression),"patient-derived GSCs [6]; recombinant Apelin 1 μM in mitogen-free media, panel of 16 patient-derived GSCs",sufficient to support self-renewal; also recorded: maintained
same,Mitogen deprivation-induced cell death,"patient-derived GSCs [6]; recombinant Apelin in mitogen-free media, trypan blue exclusion",hindered
Apelin 36: 36 amino acid peptide corresponding to the sequence 42-77 of the Apelin proprotein; APJ agonist (LVQPRGSRNGPGPWQGGRRKFRRQRPRLSHKGPMPF; homo sapiens; Apelin 36 aa - homo sapiens),GSC survival,patient-derived GSCs [1],promote GSC survival
